From article PMC7339578, “Multiple circulating alkaloids and saponins from intravenous Kang-Ai injection inhibit human cytochrome P450 and UDP-glucuronosyltransferase isozymes: potential drug–drug interactions” (Chinese Medicine, 2020)
Where two headings read alike, the source gives them in different places.

Experiments:
CYP2C9 = CYP2C9 (Homo sapiens, UniProt P11712); experiment: Inhibition of recombinant CYP2C9 (probe tolbutamide); type: in vitro ADME; settings: for IC50: read-out: IC50 towards CYP2C9
Method: (§1) In this study, phenacetin (100 μM), coumarin (100 μM), bupropion (100 μM), paclitaxel (60 μM), tolbutamide (200 μM), mephenytoin (100 μM), chlorzoxazone (200 μM) and nifedipine (40 μM) have been used as the probe substrates for CYP1A2, 2A6, 2B6, 2C8, 2C9, 2C19, 2E1 and 3A4, respectively.

[1] = Stability tests of analytes in rat plasma QC samples; type: in vitro ADME; settings: rat plasma
Method: […] The dilution integrity was investigated by analyzing six replicate samples with each analyte, and each analyte were diluted 10-fold with blank rat matrix. Furthermore, the diluted samples were analyzed using freshly prepared calibration curve to calculate RE and RSD, which should be no more than ± 15% as criterion.

CYP2E1 = CYP2E1 (Homo sapiens, UniProt P05181); experiment: Inhibition of recombinant CYP2E1 (probe chlorzoxazone)
Method: Phase I incubation system (100 μL) contained Tris–HCl buffer (50 mM, pH = 7.4), MgCl2 (5 mM), each CYP isozyme, specific substrates, circulating compounds and NADPH (1 mM) as prescribed previously. After incubation (37 °C, 60 min), the reaction was terminated by ice-cold acetonitrile (100 μL), following by centrifugation at 13,800g for 10 min. The supernatant (8 μL) was acquired for ultra-high-performance liquid chromatography (UHPLC) system (Waters, Manchester, UK) analysis.
After optimization of incubation conditions (Additional file 1: Fig. S1), the substrates were incubated with each CYP isozyme at different protein concentrations (0.05 mg/mL for CYP1A2 and 3A4; 0.1 mg/mL for CYP2A6, 2B6, 2C8, 2C9, 2C19 and 2E1) in the absence (control) and presence of different mixture or herbal compounds (Kang-Ai injection and samples that Kang-Ai injection was diluted 10 times; 1, 10, and 100 μM for matrine and oxymatrine; 0.1, 1, 10 and 100 μM for astragalosides and ginsenosides).
The half-inhibition concentration (IC50) values were determined by non-linear regression analysis. […] The inhibition mechanism towards corresponding CYP and UGT isoforms were further explored.
The inhibition constant (Ki) values were obtained by multiple concentrations of substrates in the absence or presence of multiple concentrations of herbal compounds as described previously. […] (1)–(3), respectively. The model with the smallest Akaike information criterion (AIC) and Schwartz information criterion (SC) values was considered as the best model, following the obtained appropriate Ki values. Model fitting and parameter estimation were performed using Graphpad Prism V5 software (SanDiego, CA).

CYP1A2 = molecular target: T1, CYP1A2 (Homo sapiens, UniProt P05177); experiment: Inhibition of recombinant CYP1A2 (probe phenacetin); type: in vitro ADME; settings: recombinant isozyme; mean ± SD of triplicate; unit not given (IC50 classes in μM); read-out: IC50 towards CYP1A2
T1 construct: purchased Corning Biosciences 456203
T1 sequence (P05177 1-516): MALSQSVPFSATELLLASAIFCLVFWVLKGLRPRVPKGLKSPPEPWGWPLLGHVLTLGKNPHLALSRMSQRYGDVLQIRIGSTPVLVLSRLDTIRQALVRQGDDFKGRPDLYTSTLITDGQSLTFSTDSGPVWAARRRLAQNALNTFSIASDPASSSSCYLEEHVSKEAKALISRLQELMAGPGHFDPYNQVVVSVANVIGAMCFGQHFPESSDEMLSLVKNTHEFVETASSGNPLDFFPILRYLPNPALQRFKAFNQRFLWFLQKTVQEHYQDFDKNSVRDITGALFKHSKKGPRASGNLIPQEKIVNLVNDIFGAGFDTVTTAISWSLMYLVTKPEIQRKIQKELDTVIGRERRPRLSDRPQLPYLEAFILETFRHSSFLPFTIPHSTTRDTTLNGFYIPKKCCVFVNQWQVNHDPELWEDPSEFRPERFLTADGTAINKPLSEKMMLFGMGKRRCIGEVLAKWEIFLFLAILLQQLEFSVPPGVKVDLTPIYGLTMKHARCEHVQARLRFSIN
Method: as §1

Chain of CYP2C9 (P11712 whole entry): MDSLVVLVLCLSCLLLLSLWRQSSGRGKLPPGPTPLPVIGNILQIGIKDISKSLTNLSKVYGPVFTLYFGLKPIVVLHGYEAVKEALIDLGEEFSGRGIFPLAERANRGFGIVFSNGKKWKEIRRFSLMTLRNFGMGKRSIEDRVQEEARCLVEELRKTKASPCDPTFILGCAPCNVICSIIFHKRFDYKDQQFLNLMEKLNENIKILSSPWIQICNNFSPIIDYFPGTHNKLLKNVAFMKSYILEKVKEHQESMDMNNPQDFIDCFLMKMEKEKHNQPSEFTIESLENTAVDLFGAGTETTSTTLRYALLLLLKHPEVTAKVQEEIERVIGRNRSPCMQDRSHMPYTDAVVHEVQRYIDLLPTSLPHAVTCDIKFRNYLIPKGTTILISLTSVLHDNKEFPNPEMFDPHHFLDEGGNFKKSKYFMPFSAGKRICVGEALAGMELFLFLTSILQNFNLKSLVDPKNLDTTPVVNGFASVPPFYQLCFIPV
Chain of CYP2E1 (P05181 whole entry): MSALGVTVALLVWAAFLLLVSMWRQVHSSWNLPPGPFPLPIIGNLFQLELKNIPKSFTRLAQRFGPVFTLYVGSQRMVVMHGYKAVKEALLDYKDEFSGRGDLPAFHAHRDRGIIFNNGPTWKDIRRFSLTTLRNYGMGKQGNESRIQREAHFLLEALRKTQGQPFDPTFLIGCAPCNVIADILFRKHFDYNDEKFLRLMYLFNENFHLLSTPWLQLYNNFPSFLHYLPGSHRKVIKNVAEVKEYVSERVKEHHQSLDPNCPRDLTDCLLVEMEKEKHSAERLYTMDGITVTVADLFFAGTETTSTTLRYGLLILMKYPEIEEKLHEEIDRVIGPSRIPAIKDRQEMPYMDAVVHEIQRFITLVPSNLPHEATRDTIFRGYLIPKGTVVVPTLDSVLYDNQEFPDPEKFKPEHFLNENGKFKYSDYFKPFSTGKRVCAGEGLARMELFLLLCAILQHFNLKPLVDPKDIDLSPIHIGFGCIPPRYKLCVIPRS

CC(C)(O)[C@@H]1CC[C@](C)([C@H]2[C@@H](O)C[C@@]3(C)[C@@H]4C[C@H](O[C@@H]5O[C@H](CO)[C@@H](O)[C@H](O)[C@H]5O)[C@H]5C(C)(C)[C@@H](O[C@@H]6OC[C@@H](O)[C@H](O)[C@H]6O)CC[C@@]56C[C@@]46CC[C@]23C)O1 [Compound B2, Astragaloside IV]
inhibition type (smallest AIC and SC) (CYP2C9; CYP2C9): Noncompetitive inhibition | Ki (CYP2C9; CYP2C9, competitive model): 17.4 ± 3.7 µM | Ki (CYP2C9; CYP2C9, mixed-type model): 45 ± 16.6 µM | α (CYP2C9; CYP2C9, mixed-type model): 1.5 ± 1.0 | Ki (CYP2C9; CYP2C9, noncompetitive model): 55.8 ± 5.3 µM | Cmax/Ki ([I]/Ki) (CYP2C9; CYP2C9, selected model, rat plasma Cmax): 0.04 | IC50 (CYP2C9; tolbutamide 200 μM): 65 µM | At -80 °C for 48 h, Mean±SD ([1]; nominal conc. 80 nM): 87.06 ± 0.84 nM | At -80 °C for 48 h, RE ([1]; nominal conc. 80 nM): 9.91% | Extracted samples at 8 °C for 18 h, Mean±SD ([1]; nominal conc. 80 nM): 80.76 ± 10.01 nM | Extracted samples at 8 °C for 18 h, RE ([1]; nominal conc. 80 nM): -13.07% | Short-term stability at room temperature for 6 h, Mean±SD ([1]; nominal conc. 80 nM): 82.35 ± 9.84 nM | Short-term stability at room temperature for 6 h, RE ([1]; nominal conc. 80 nM): -11.26% | Three freeze-thaw cycles (-80 °C ↔ 23 °C), Mean±SD ([1]; nominal conc. 80 nM): 88.56 ± 1.31 nM | Three freeze-thaw cycles (-80 °C ↔ 23 °C), RE ([1]; nominal conc. 80 nM): 12.35% | At -80 °C for 48 h, Mean±SD ([1]; nominal conc. 400 nM): 378.90 ± 6.78 nM | At -80 °C for 48 h, RE ([1]; nominal conc. 400 nM): -7.16% | Extracted samples at 8 °C for 18 h, Mean±SD ([1]; nominal conc. 400 nM): 376.72 ± 29.81 nM | Extracted samples at 8 °C for 18 h, RE ([1]; nominal conc. 400 nM): -10.44% | Short-term stability at room temperature for 6 h, Mean±SD ([1]; nominal conc. 400 nM): 361.42 ± 15.40 nM | Short-term stability at room temperature for 6 h, RE ([1]; nominal conc. 400 nM): -13.36% | Three freeze-thaw cycles (-80 °C ↔ 23 °C), Mean±SD ([1]; nominal conc. 400 nM): 385.93 ± 32.19 nM | Three freeze-thaw cycles (-80 °C ↔ 23 °C), RE ([1]; nominal conc. 400 nM): -12.56% | At -80 °C for 48 h, Mean±SD ([1]; nominal conc. 1600 nM): 1507.16 ± 152.79 nM | At -80 °C for 48 h, RE ([1]; nominal conc. 1600 nM): -12.08% | Extracted samples at 8 °C for 18 h, Mean±SD ([1]; nominal conc. 1600 nM): 1574.79 ± 151.38 nM | Extracted samples at 8 °C for 18 h, RE ([1]; nominal conc. 1600 nM): -11.93% | Short-term stability at room temperature for 6 h, Mean±SD ([1]; nominal conc. 1600 nM): 1463.38 ± 60.14 nM | Short-term stability at room temperature for 6 h, RE ([1]; nominal conc. 1600 nM): -11.64% | Three freeze-thaw cycles (-80 °C ↔ 23 °C), Mean±SD ([1]; nominal conc. 1600 nM): 1434.32 ± 47.18 nM | Three freeze-thaw cycles (-80 °C ↔ 23 °C), RE ([1]; nominal conc. 1600 nM): -13.10% | IC50 (CYP2E1; read-out: IC50 towards CYP2E1, recombinant isozyme, mean ± SD of triplicate, unit not given (IC50 classes in μM)): > 100 µM | IC50 (CYP1A2): > 100 µM

CC(C)=CCC[C@](C)(O[C@@H]1O[C@H](CO)[C@@H](O)[C@H](O)[C@H]1O)[C@H]1CC[C@]2(C)[C@@H]1[C@H](O)C[C@@H]1[C@@]3(C)CC[C@H](O)C(C)(C)[C@@H]3[C@@H](O[C@@H]3O[C@H](CO)[C@@H](O)[C@H](O)[C@H]3O)C[C@]12C [Compound C6, Ginsenoside Rg1]
IC50 (CYP2C9; recombinant isozyme, mean ± SD of triplicate, unit not given (IC50 classes in μM)): > 100 µM | At -80 °C for 48 h, Mean±SD ([1]; nominal conc. 40 nM): 37.29 ± 1.37 nM | At -80 °C for 48 h, RE ([1]; nominal conc. 40 nM): -10.20% | Extracted samples at 8 °C for 18 h, Mean±SD ([1]; nominal conc. 40 nM): 35.69 ± 0.56 nM | Extracted samples at 8 °C for 18 h, RE ([1]; nominal conc. 40 nM): -12.18% | Short-term stability at room temperature for 6 h, Mean±SD ([1]; nominal conc. 40 nM): 38.60 ± 1.14 nM | Short-term stability at room temperature for 6 h, RE ([1]; nominal conc. 40 nM): -6.74% | Three freeze-thaw cycles (-80 °C ↔ 23 °C), Mean±SD ([1]; nominal conc. 40 nM): 39.64 ± 2.41 nM | Three freeze-thaw cycles (-80 °C ↔ 23 °C), RE ([1]; nominal conc. 40 nM): -7.72% | At -80 °C for 48 h, Mean±SD ([1]; nominal conc. 200 nM): 209.85 ± 12.74 nM | At -80 °C for 48 h, RE ([1]; nominal conc. 200 nM): 10.34% | Extracted samples at 8 °C for 18 h, Mean±SD ([1]; nominal conc. 200 nM): 197.72 ± 17.37 nM | Extracted samples at 8 °C for 18 h, RE ([1]; nominal conc. 200 nM): 8.81% | Short-term stability at room temperature for 6 h, Mean±SD ([1]; nominal conc. 200 nM): 204.22 ± 5.64 nM | Short-term stability at room temperature for 6 h, RE ([1]; nominal conc. 200 nM): 4.83% | Three freeze-thaw cycles (-80 °C ↔ 23 °C), Mean±SD ([1]; nominal conc. 200 nM): 189.03 ± 9.20 nM | Three freeze-thaw cycles (-80 °C ↔ 23 °C), RE ([1]; nominal conc. 200 nM): -10.01% | At -80 °C for 48 h, Mean±SD ([1]; nominal conc. 800 nM): 800.01 ± 77.30 nM | At -80 °C for 48 h, RE ([1]; nominal conc. 800 nM): 11.14% | Extracted samples at 8 °C for 18 h, Mean±SD ([1]; nominal conc. 800 nM): 826.40 ± 51.24 nM | Extracted samples at 8 °C for 18 h, RE ([1]; nominal conc. 800 nM): 10.42% | Short-term stability at room temperature for 6 h, Mean±SD ([1]; nominal conc. 800 nM): 737.30 ± 34.89 nM | Short-term stability at room temperature for 6 h, RE ([1]; nominal conc. 800 nM): -11.11% | Three freeze-thaw cycles (-80 °C ↔ 23 °C), Mean±SD ([1]; nominal conc. 800 nM): 739.78 ± 39.17 nM | Three freeze-thaw cycles (-80 °C ↔ 23 °C), RE ([1]; nominal conc. 800 nM): -11.08% | IC50 (CYP2E1): > 100 µM | IC50 (CYP1A2): > 100 µM
